Assay results: PubChem BioAssay (NCI)
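Method: 48-hour compound exposure of cells in 96-well plates, five concentrations, linear interpolation of endpoints. GI50 = concentration required for 50% inhibition of growth. TGI denotes the concentration required for complete inhibition of growth.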

How the values were obtained:
Test in all cases: NCI tumour cell line growth inhibition, 48 h
ACHN renal = test system: ACHN renal
SF-295 CNS = test system: SF-295 CNS
DU-145 prostate = test system: DU-145 prostate
TK-10 renal = test system: TK-10 renal
PC-3 prostate = test system: PC-3 prostate
SK-MEL-5 melanoma = test system: SK-MEL-5 melanoma
RPMI-8226 leukemia = test system: RPMI-8226 leukemia
MDA-MB-435 = test system: MDA-MB-435
A498 renal = test system: A498 renal
NCI-H226 lung = test system: NCI-H226 lung
SK-OV-3 ovarian = test system: SK-OV-3 ovarian
OVCAR-3 ovarian = test system: OVCAR-3 ovarian
SNB-75 CNS = test system: SNB-75 CNS
BT-549 breast = test system: BT-549 breast
K-562 leukemia = test system: K-562 leukemia
SW-620 colon = test system: SW-620 colon
CAKI-1 renal = test system: CAKI-1 renal
OVCAR-4 ovarian = test system: OVCAR-4 ovarian
MCF7 breast = test system: MCF7 breast
HL-60(TB) leukemia = test system: HL-60(TB) leukemia
NCI-H23 lung = test system: NCI-H23 lung
EKVX NSCLC = test system: EKVX NSCLC
HCT-15 colon = test system: HCT-15 colon
RXF 393 renal = test system: RXF 393 renal
T-47D breast = test system: T-47D breast
SF-268 CNS = test system: SF-268 CNS
COLO 205 colon = test system: COLO 205 colon
OVCAR-5 ovarian = test system: OVCAR-5 ovarian
SF-539 CNS = test system: SF-539 CNS
HOP-92 NSCLC = test system: HOP-92 NSCLC
CCRF-CEM leukemia = test system: CCRF-CEM leukemia
KM12 colon = test system: KM12 colon
MOLT-4 leukemia = test system: MOLT-4 leukemia
SR leukemia = test system: SR leukemia
SK-MEL-28 melanoma = test system: SK-MEL-28 melanoma
IGROV1 ovarian = test system: IGROV1 ovarian
M14 melanoma = test system: M14 melanoma
MDA-MB-231 breast = test system: MDA-MB-231 breast
HT29 colon = test system: HT29 colon
SK-MEL-2 melanoma = test system: SK-MEL-2 melanoma
SNB-19 CNS = test system: SNB-19 CNS

N=C(N)c1ccc(-c2ccc(-c3ccc(Cl)cc3)o2)o1
GI50 (ACHN renal): 1.89 µM | TGI (ACHN renal): 3.51 µM | GI50 (SF-295 CNS): 1.83 µM | TGI (SF-295 CNS): 3.32 µM | GI50 (DU-145 prostate): 1.75 µM | TGI (DU-145 prostate): 3.27 µM | GI50 (TK-10 renal): 2.07 µM | TGI (TK-10 renal): 3.57 µM | GI50 (PC-3 prostate): 1.81 µM | TGI (PC-3 prostate): 3.38 µM | GI50 (SK-MEL-5 melanoma): 1.81 µM | TGI (SK-MEL-5 melanoma): 3.21 µM | GI50 (RPMI-8226 leukemia): 2.12 µM | TGI (RPMI-8226 leukemia): 4.78 µM | GI50 (MDA-MB-435): 1.36 µM | TGI (MDA-MB-435): 2.69 µM | GI50 (A498 renal): 2.12 µM | TGI (A498 renal): 7.59 µM | GI50 (NCI-H226 lung): 2.19 µM | TGI (NCI-H226 lung): 6.46 µM | GI50 (SK-OV-3 ovarian): 1.79 µM | TGI (SK-OV-3 ovarian): 3.35 µM | GI50 (OVCAR-3 ovarian): 1.83 µM | TGI (OVCAR-3 ovarian): 3.43 µM | GI50 (SNB-75 CNS): 1.5 µM | TGI (SNB-75 CNS): 2.86 µM | GI50 (BT-549 breast): 5.92 µM | TGI (BT-549 breast): 29.6 µM

Nc1nc(Nc2ccccc2)sc1C(=O)c1ccc(Cl)cc1
TGI (SF-295 CNS): > 100 µM | TGI (K-562 leukemia): > 100 µM | TGI (SW-620 colon): > 49 µM | TGI (CAKI-1 renal): 27.4 µM | TGI (OVCAR-4 ovarian): 3.01 µM | TGI (MCF7 breast): > 100 µM | TGI (HL-60(TB) leukemia): > 100 µM | TGI (NCI-H23 lung): > 100 µM | TGI (EKVX NSCLC): > 100 µM | TGI (TK-10 renal): > 100 µM | TGI (HCT-15 colon): > 100 µM | TGI (RXF 393 renal): 5.17 µM | TGI (T-47D breast): > 100 µM | TGI (SF-268 CNS): > 100 µM | TGI (COLO 205 colon): > 100 µM | TGI (OVCAR-5 ovarian): > 100 µM | TGI (SF-539 CNS): > 100 µM | TGI (HOP-92 NSCLC): > 100 µM | TGI (CCRF-CEM leukemia): > 100 µM | TGI (KM12 colon): > 100 µM | TGI (MOLT-4 leukemia): > 100 µM | TGI (SR leukemia): > 100 µM | TGI (SK-MEL-28 melanoma): > 100 µM | TGI (IGROV1 ovarian): > 100 µM | TGI (M14 melanoma): > 100 µM | TGI (BT-549 breast): > 100 µM | TGI (MDA-MB-231 breast): > 100 µM | TGI (HT29 colon): > 100 µM | TGI (SK-MEL-2 melanoma): > 100 µM | TGI (SNB-19 CNS): > 100 µM
